Reference: the NIST ThermoML archive (doi:10.1016/j.jct.2006.03.021)
Numbers after ± are expanded uncertainties.

Assay: molar heat capacity at constant pressure
Settings: 101.33 kPa, Crystal, Vacuum adiabatic calorimetry

O.OC[C@H]1O[C@@H](O[C@H]2O[C@H](CO)[C@@H](O)[C@H](O)[C@H]2O)[C@H](O)[C@@H](O)[C@@H]1O [α,β-trehalose monohydrate]
Settings	molar heat capacity at constant pressure [J/K/mol]
143.36 K	226.95 ± 0.55
145.42 K	229.87 ± 0.55
147.49 K	232.93 ± 0.56
149.55 K	235.92 ± 0.56
150 K	236.64 ± 0.57
151.6 K	238.94 ± 0.57
153.65 K	242.05 ± 0.58
155.7 K	244.94 ± 0.58
157.76 K	248.08 ± 0.59
159.82 K	250.99 ± 0.6
160 K	251.27 ± 0.6
161.88 K	253.84 ± 0.6
163.94 K	256.98 ± 0.61
166.01 K	260.01 ± 0.61
168.09 K	262.9 ± 0.62
170 K	265.74 ± 0.63
170.15 K	265.9 ± 0.63
172.2 K	268.93 ± 0.63
174.23 K	271.83 ± 0.64
176.25 K	274.9 ± 0.64
178.26 K	277.71 ± 0.65
180 K	280.12 ± 0.66
180.26 K	280.35 ± 0.66
182.24 K	283.42 ± 0.66
184.22 K	286.13 ± 0.67
186.18 K	288.99 ± 0.67
188.13 K	291.83 ± 0.68
190 K	294.51 ± 0.69
190.07 K	294.5 ± 0.69
191.99 K	297.33 ± 0.69
193.92 K	300.26 ± 0.7
195.86 K	302.94 ± 0.7
197.82 K	305.58 ± 0.71
199.78 K	308.6 ± 0.71
200 K	308.94 ± 0.72
201.75 K	311.51 ± 0.72
203.73 K	314.35 ± 0.73
205.72 K	317.15 ± 0.73
207.72 K	320.03 ± 0.74
209.73 K	323.23 ± 0.75
210 K	323.42 ± 0.75
211.76 K	326.07 ± 0.75
213.79 K	328.83 ± 0.76
215.82 K	331.74 ± 0.76
217.85 K	335.14 ± 0.77
219.89 K	337.71 ± 0.78
220 K	337.95 ± 0.78
221.94 K	340.79 ± 0.78
223.97 K	343.7 ± 0.79
226.01 K	346.53 ± 0.79
228.06 K	349.68 ± 0.8
230 K	352.54 ± 0.81
230.09 K	352.7 ± 0.81
232.12 K	355.67 ± 0.81
234.16 K	358.66 ± 0.82
236.2 K	361.46 ± 0.83
238.24 K	364.57 ± 0.83
240 K	367.19 ± 0.84
240.3 K	367.64 ± 0.84
242.38 K	370.71 ± 0.84
244.44 K	373.64 ± 0.85
246.49 K	376.59 ± 0.86
248.54 K	379.8 ± 0.86
250 K	381.89 ± 0.87
250.58 K	382.78 ± 0.87
252.6 K	385.78 ± 0.88
254.62 K	388.6 ± 0.88
256.63 K	391.62 ± 0.89
258.63 K	394.61 ± 0.89
260 K	396.69 ± 0.9
260.63 K	397.5 ± 0.9
262.91 K	400.41 ± 0.91
264.59 K	403.48 ± 0.91
266.56 K	406.35 ± 0.92
268.52 K	409.35 ± 0.93
270 K	411.55 ± 0.93
270.48 K	412.29 ± 0.93
272.46 K	415.5 ± 0.94
274.46 K	418.09 ± 0.94
276.47 K	421.07 ± 0.95
278.49 K	424.17 ± 0.96
280 K	426.56 ± 0.96
280.52 K	427.38 ± 0.96
282.54 K	430.46 ± 0.97
284.56 K	433.56 ± 0.98
286.58 K	436.49 ± 0.98
288.58 K	439.62 ± 0.99
290 K	441.71 ± 0.99
290.63 K	443 ± 1
292.65 K	445.73 ± 1
294.68 K	448.7 ± 1
296.7 K	451.81 ± 1
298.15 K	454.11 ± 1
298.72 K	454.95 ± 1
300 K	456.92 ± 1
300.74 K	457.97 ± 1
